{"source": "paper PMC5559328", "about": "(Clinical cancer research : an official journal of the …, 2017)", "key": {"tumors": {"tested_on": "tumors", "settings": "mouse models; ref [21]; cited from earlier work"}, "[1]": {"tested_on": "patients with advanced solid tumors", "design": "species or system human", "settings": "in vivo"}, "plasma S1P": {"tested_on": "plasma S1P", "settings": "at therapeutically efficacious drug doses; ref [34]; cited from earlier work"}, "[2]": {"settings": "cited from earlier work"}, "SK2": {"biological_target": "SK2", "settings": "ref [17], [21], cited from earlier work"}, "[3]": {"assay": "Plasma drug exposure of ABC294640", "assay_type": "in vivo, human", "settings": "for Trough drug level: Day 28 prior to drug administration; for AUC(0-inf) / AUC(0-t): oral"}, "[4]": {"tested_on": "plasma S1P and dihydroC16-ceramide", "assay": "Plasma sphingolipid pharmacodynamics", "assay_type": "in vivo, human"}, "[5]": {"settings": "250 and 500 mg treatment groups"}}, "note": "Counter-ions that a name gives are not always drawn. Like-named read-outs stand apart in the source and are kept apart here.", "data": [{"smiles": "O=C(NCc1ccncc1)C12CC3CC(C1)CC(c1ccc(Cl)cc1)(C3)C2", "note": "[ABC294640, 4-pyridinylmethyl-3-(4-chlorophenyl)adamantinecarboxamide, hydrochloride salt]", "values": [{"measurement": "Dose at which single-agent antitumor activity is typically apparent", "setting": "tumors", "value": "≥ 25", "unit": "mg/kg/day"}, {"measurement": "Patients with psychiatric disorders", "setting": "[1]; human", "value": 2, "unit": "patients"}, {"measurement": "Patients with treatment-related nervous system disorders", "setting": "[1]; human", "value": 6, "unit": "patients"}, {"measurement": "Fatigue (treatment-related adverse event)", "setting": "[1]; human, 28 day", "value": "0 n (%)"}, {"measurement": "Creatinine Increase (treatment-related adverse event)", "setting": "[1]; human, 28 days", "value": "0 n (%)"}, {"measurement": "Fatigue (treatment-related adverse event)", "setting": "[1]; human, 28 days", "value": "5 (24) n (%)"}, {"measurement": "Hyperbilirubinemia (treatment-related adverse event)", "setting": "[1]; human, 28 days", "value": "0 n (%)"}, {"measurement": "Vision Change (treatment-related adverse event)", "setting": "[1]; human, 28 days", "value": "0 n (%)"}, {"measurement": "Recommended Phase II Dose", "setting": "[1]; human, po, 28 day cycles, continuous", "value": 500, "unit": "mg bid"}, {"measurement": "Tolerability of dose level", "setting": "[1]", "value": "not to be tolerable"}, {"measurement": "Reduction of plasma S1P levels", "setting": "plasma S1P", "value": "up to 50%"}, {"measurement": "half-life", "setting": "[2]; across several species, extensive preclinical work", "value": "approximately 4 hours"}, {"measurement": "Half-life predicted by animal data", "setting": "[2]; animal data", "value": "~ 4.5 hours"}, {"measurement": "Ki", "setting": "SK2; read-out: Ki, SK2", "value": 9, "unit": "µM"}, {"measurement": "Ki, SK2", "setting": "SK2", "value": 3.4, "unit": "µg/mL"}, {"measurement": "Mode of SK2 inhibition", "setting": "SK2", "value": "competitive with respect to sphingosine"}, {"measurement": "Trough drug level", "setting": "[3]; 250 mg bid, n=3", "value": "0.29 ± 0.15", "unit": "µg/mL"}, {"measurement": "Trough drug level", "setting": "[3]; 250 mg qd, n=5", "value": "0.20 ± 0.34", "unit": "µg/mL"}, {"measurement": "Ratio AUC0-T at Day 28 to AUCINF at Day 1", "setting": "[3]; 500 mg bid", "value": 1.25}, {"measurement": "Trough drug level", "setting": "[3]; 500 mg bid, n=5", "value": "1.82 ± 0.85", "unit": "µg/mL"}, {"measurement": "Ratio AUC0-T at Day 28 to AUCINF at Day 1", "setting": "[3]; 750 mg bid", "value": 1.85}, {"measurement": "Trough drug level", "setting": "[3]; 750 mg bid, n=1", "value": 4.48, "unit": "µg/mL"}, {"measurement": "AUC(0-inf)", "setting": "[3]; human, plasma, 250 mg", "value": "15200 ± 8230", "unit": "ng·h/mL"}, {"measurement": "AUC(0-t)", "setting": "[3]; human, plasma, 250 mg", "value": "17800 ± 15200", "unit": "ng·h/mL"}, {"measurement": "AUC(0-inf)", "setting": "[3]; human, plasma, 500 mg", "value": "40700 ± 28000", "unit": "ng·h/mL"}, {"measurement": "AUC(0-t)", "setting": "[3]; human, plasma, 500 mg", "value": "50800 ± 11300", "unit": "ng·h/mL"}, {"measurement": "Tmax", "setting": "[3]; human, plasma, po", "value": "1 to 2", "unit": "h"}, {"measurement": "half-life", "setting": "[3]; human, plasma, po", "value": "5 to 15", "unit": "h"}, {"measurement": "Maximum plasma S1P decrease", "setting": "[4]; 250 mg (Days 1 and 28, 250 mg qd with 250 mg bid combined), n=10", "value": "51±6", "unit": "%"}, {"measurement": "Maximum plasma S1P decrease", "setting": "[4]; 500 mg (Days 1 and 28 combined), n=5", "value": "46±9", "unit": "%"}, {"measurement": "Maximum plasma S1P decrease", "setting": "[4]; 750 mg (Days 1 and 28 combined), n=2", "value": "54±14", "unit": "%"}, {"measurement": "Time of maximum elevation of plasma dihydroC16-ceramide", "setting": "[4]; [5]", "value": "8 to 12", "unit": "h"}, {"measurement": "Time of return of plasma dihydroC16-ceramide to baseline", "setting": "[4]; [5]", "value": 24, "unit": "h"}, {"measurement": "Time of minimum plasma S1P level after treatment", "setting": "[4]; patients, all doses", "value": 12, "unit": "h"}, {"measurement": "Time of recovery of plasma S1P to baseline", "setting": "[4]; patients, all doses", "value": "≤ 24", "unit": "h"}]}]}
